Read-outs that look alike come from different tables or passages of the source.

A word on the IC50: it is the concentration needed to halve the response being measured. A low value points to greater potency in that assay.

Data set [1] concerns H630 human colorectal tumor cells. Put plainly: Clonogenic assay. The class given is cell-based. To be noted: for IC50: Clonogenic assay, H630 cells, 72 h drug exposure. How it is done:
(§1) About one thousand viable H630 or H630-10 cells suspended in 10 mL of RPMI 1640 medium with 9% NU serum IV were grown at 37° C. in a humidified 5% CO2-air atmosphere in 100×20 mm plastic petri dishes. After 48 h, the medium was removed, and replaced with 10 mL of fresh medium containing either 5-FU, FdUMP[10], or both 5-FU and FdUMP[10]. After 72 h, the medium containing drugs was removed and replaced by fresh medium. Plates were incubated for 2 to 3 weeks with fresh medium added, if necessary, after which the medium was removed, and the clones were identified by staining with 0.1% methylene blue in 70% ethanol aqueous solution. The number of surviving colonies was counted, and calculated as a percent of controls. Each study was repeated twice.

Data set [2] concerns H630-10 human colorectal tumor cells. Put plainly: Clonogenic assay. The format is cell-based. The following applies: H630-10 cells, 72 h drug exposure. How it is done: as §1
Data set [3] deals with H630 human colorectal tumor cells. Put plainly: cells. The following applies: NCI-H630, 24 h.
Procedure: (§2) The antiproliferative activities of FdUMP[10] and 5-FU for the human colorectal tumor cell lines H630 and H630-10 were compared using an assay for 3-(4,5-dimethylthiazol-2-yl)-2,5-diphenyltetrazolium bromide (MTT). H630 and H630-10 cells were cultured using RPMI 1640 containing L-glutamine and supplemented with 10% Nu-serum IV. All culture media were supplemented with penicillin/streptomycin. 25,000 cells were plated (96 well flute-bottom plate) in 200 μL of medium at 37° C. overnight in an air atmosphere containing 5% CO2. The medium was replaced the next day, and cells were exposed to the drugs for 24 h. The medium was then removed from the plates and replaced with 100 μL of fresh medium and 25 μL of MTT solution (5 μg/μL in PBS) per well. Following 2 h incubation, 100)L of MTT solvent (20% w/v SDS dissolved in DMF:H2O [1:1], pH 4.7) was added to each well and the plates were incubated overnight (Senderoff et al., 1990). The plates were analyzed the following morning on a Titerek Multiscan Plus 96-well plate analyzer (v.1.4). The number of viable cells in each well containing cells treated with drug was calculated from the absorbance at 570 nm compared to untreated controls. The means and standard deviation at each concentration for each drug were calculated using standard statistical methods. MTT assays were run in duplicate or triplicate to assure the statistical significance of the results.
For data set [4] the following is noted: cited from earlier work.
In data set [5] the test system is H630-10 human colorectal tumor cells. Put plainly: MTT assay. The format is cell-based. To be noted: H630-10 cells, 24 h drug exposure. An excerpt: All culture media were supplemented with penicillin/streptomycin.
On the technique in general: Tetrazolium dyes change colour on reduction, which living cells bring about.

In data set [6] the test system is H630 human colorectal tumor cells.
Procedure: as §2
Another data set concerns H630 cells. Put plainly: TUNEL assay for induction of apoptosis. The class given is cell-based, human. To be noted: TUNEL staining, H630 cells exposed for 72 h, data not shown. How it is done:
About one million H630 cells were seeded into each of the T-75 cell culture flasks. Two days later, after two doubling times, the cells were exposed to FdUMP[10]. The cells were exposed to FdUMP[10] for 72 h, and then fixed with 1% methanol-free formaldehyde for 20 min at 0° C. The fixed-cells were then placed in a 70% ethanol solution at −20° C. for two weeks. The ethanol was then removed, and the cells were washed with PBS and incubated with TdT buffer (Promega), containing equilibration buffer, nucleotide mixture and TdT enzyme, at 37° C. for 1 hour. The reaction was terminated by addition of EDTA solution and the incubation buffer was then removed. The cells were then treated with 0.1% Triton, followed by propidium iodide containing DNase-free RNAse. The cells were kept at room temperature for 30 min, and then analyzed by flow cytometry.

The next data set deals with cells. Put plainly: Preliminary rescue experiments on the mechanism of cytotoxicity. The class given is cell-based.

With `O=c1[nH]cc(F)c(=O)[nH]1` [5-FU, 5-fluorouracil, reference compound], the concentration for half-maximal inhibition (IC50) was 3900 nM in data set [1] (Homo sapiens, NCI-H630); 75000 nM in data set [2] (Homo sapiens); 4870 nM in data set [3]; 27100 nM in data set [5] (Homo sapiens). Further, in data set [4], the half-life in-vivo entry is “about 18 minutes”.
For FdUMP[10], the half-maximal inhibitory concentration (IC50) in data set [1] was 250 nM; in data set [2], 71 nM; in data set [6] (MTT assay, H630 cells, 24 h drug exposure) it was 16.9 nM; in data set [5], 99.5 nM. Further, the “effect on the growth of H630 cells as single agent” value in data set [1] (FdUMP[10] alone at 4.0×10^−8 and 6.0×10^−8 M) is “no significant effect”. In addition, in data set [6], the “efficiency of FdUMP[10] relative to 5-FU” value is “about 400 times”. The cells undergoing apoptosis in the data set on H630 cells is on record as roughly 100%. For the same molecule, in the data set on cells, the “rescue of cells from FdUMP[10] by deoxythymidine” value is on record as “does not rescue”. In addition, the “reversal of the effects of FdUMP[10] by uridine” value in the data set with cells is “partially reverse”.

Source of the values: US6342485B1, “Synergistic compositions useful as anti-tumor agents” (priority 1999, dated 2002).
